# In patent publication US11274083B2, “Substituted thiophenyl uracils, salts thereof and the use thereof as herbicidal agents” (Syngenta Crop Protection AG, priority 2017, dated 2022):
# Tests used:
# Assay type in all cases: in vivo
# Alopecurus myosuroides [1] = assay: Herbicidal action post-emergence, greenhouse pot test; settings: application rate 80 g/ha, scored visually after about 3 weeks vs untreated controls
# Summary of the method: (§1)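 Plants grown from seed in sandy loam are treated at the one-leaf stage with aqueous suspensions or emulsions, 600 L/ha water rate, 0.5% additive, at 80 g/ha or lower. They then stand about 3 weeks in the greenhouse before visual scoring against untreated controls.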
# Amaranthus retroflexus [2] = assay: as above
# Summary of the method: as §1
# Setaria viridis [3] = assay: as above
# Summary of the method: as §1
# Abutilon theophrasti [4] = assay: as above
# Summary of the method: as §1
# Lolium rigidum [5] = assay: as above; settings: application rate 80 g/ha
# Summary of the method: as §1
# Matricaria inodora [6] = assay: as above
# Summary of the method: as §1
# Veronica persica [7] = assay: as above
# Summary of the method: as §1
# Viola tricolor [8] = assay: as above
# Summary of the method: as §1
# Pharbitis purpurea [9] = assay: as above
# Summary of the method: as §1
# Polygonum convolvulus [10] = assay: as above; settings: application rate 80 g/ha
# Summary of the method: as §1
# Stellaria media [11] = assay: as above
# Summary of the method: as §1
# Echinochloa crus-galli [12] = assay: as above
# Summary of the method: as §1
# Zea mays = assay: Crop compatibility post-emergence, greenhouse pot test; settings: application rate 20 g/ha
# Summary of the method: (§2)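 Visual % damage versus untreated plants, read about 3 weeks after treatment (100% = plants died, 0% = as control). Crops were sown in sandy loam pots in a greenhouse and sprayed at one-leaf stage with WP/EC compound in water with 0.5% additive, 600 L/ha.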
# Oryza sativa = assay: as above; settings: application rate 20 g/ha
# Summary of the method: as §2
# Matricaria inodora [13] = assay: Herbicidal action pre-emergence, greenhouse pot test; settings: application rate 320 g/ha
# Source text: Seeds of mono- and dicotyledonous weeds and crop plants were laid out in plastic or organic plant pots and covered with soil. The compounds of the invention formulated in the form of wettable powders (WP) or as emulsion concentrates (EC) were then applied to the surface of the covering soil as an aqueous suspension or emulsion with addition of 0.5% additive at a water application rate equivalent to 600 L/ha. After the treatment, the pots were placed in a greenhouse and kept under good growth conditions for the test plants. After about 3 weeks, the efficacy of the preparations was scored visually as a percentage by comparison with untreated controls. For example, 100% efficacy=plants have died. 0% efficacy=like control plants. Tables B1 to B17 below show the efficacies of selected compounds of the general formula (I) […] aforementioned trial method.
# Alopecurus myosuroides [14] = assay: as above; settings: application rate 320 g/ha
# Summary of the method: (§3)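 Efficacy (%) was estimated visually after about 3 weeks in the greenhouse by comparison with untreated pots. Before that, seeded pots received a surface spray of formulated compound at 320 g/ha or less.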
# Hordeum murinum = assay: as above; settings: application rate 320 g/ha
# Summary of the method: as §3
# Amaranthus retroflexus [15] = assay: as above
# Summary of the method: as §3
# Avena fatua [16] = assay: as above; settings: application rate 320 g/ha
# Summary of the method: as §3
# Setaria viridis [17] = assay: as above; settings: application rate 320 g/ha
# Summary of the method: as §3
# Abutilon theophrasti [18] = assay: as above; settings: application rate 320 g/ha
# Summary of the method: as §3
# Lolium rigidum [19] = assay: as above; settings: application rate 320 g/ha
# Summary of the method: as §3
# Veronica persica [20] = assay: as above; settings: application rate 320 g/ha
# Summary of the method: as §3
# Viola tricolor [21] = assay: as above; settings: application rate 320 g/ha
# Summary of the method: as §3
# Cyperus esculentus = assay: as above; settings: application rate 320 g/ha
# Summary of the method: as §3
# Pharbitis purpurea [22] = assay: as above; settings: application rate 320 g/ha
# Summary of the method: as §3
# Polygonum convolvulus [23] = assay: as above; settings: application rate 320 g/ha
# Summary of the method: as §3
# Stellaria media [24] = assay: as above; settings: application rate 320 g/ha
# Summary of the method: as §3
# Echinochloa crus-galli [25] = assay: as above; settings: application rate 320 g/ha
# Summary of the method: as §3
# Avena fatua [26] = assay: Herbicidal action post-emergence, greenhouse pot test; settings: application rate 80 g/ha
# Summary of the method: as §1
# Triticum aestivum = assay: Crop compatibility post-emergence, greenhouse pot test; settings: application rate 20 g/ha
# Summary of the method: as §2
SMILES,Alopecurus myosuroides (Efficacy in %) (Alopecurus myosuroides [1]) [%],Amaranthus retroflexus (Efficacy in %) (Amaranthus retroflexus [2]; application rate 80 g/ha) [%],Abutilon theophrasti (Efficacy in %) (Abutilon theophrasti [4]; application rate 80 g/ha) [%],Lolium rigidum (Efficacy in %) (Lolium rigidum [5]) [%],Matricaria inodora (Efficacy in %) (Matricaria inodora [6]; application rate 80 g/ha) [%],Veronica persica (Efficacy in %) (Veronica persica [7]; application rate 20 g/ha) [%],Pharbitis purpurea (Efficacy in %) (Pharbitis purpurea [9]; application rate 80 g/ha) [%],Polygonum convolvulus (Efficacy in %) (Polygonum convolvulus [10]) [%],Stellaria media (Efficacy in %) (Stellaria media [11]; application rate 20 g/ha) [%],Echinochloa crus-galli (Efficacy in %) (Echinochloa crus-galli [12]; application rate 80 g/ha) [%],Zea mays (Efficacy in %) (Zea mays) [%],Matricaria inodora (Efficacy in %) (Matricaria inodora [13]) [%],Hordeum murinum (Efficacy in %) (Hordeum murinum) [%],Setaria viridis (Efficacy in %) (Setaria viridis [17]) [%],Abutilon theophrasti (Efficacy in %) (Abutilon theophrasti [18]) [%],Veronica persica (Efficacy in %) (Veronica persica [20]) [%],Cyperus esculentus (Efficacy in %) (Cyperus esculentus) [%],Pharbitis purpurea (Efficacy in %) (Pharbitis purpurea [22]) [%],Polygonum convolvulus (Efficacy in %) (Polygonum convolvulus [23]) [%],Echinochloa crus-galli (Efficacy in %) (Echinochloa crus-galli [25]) [%],also measured
CCNC(=O)COC(=O)C(C)Sc1cc(-n2c(=O)cc(C(F)(F)F)n(C)c2=O)c(F)cc1Cl (centres unmarked) [I.1-183],80,100,100,100,100,100,100,100,100,100,10,100,90,100,100,100,80,100,100,100,Setaria viridis (Efficacy in %) (Setaria viridis [3]; application rate 80 g/ha): 100%; Viola tricolor (Efficacy in %) (Viola tricolor [8]; application rate 20 g/ha): 100%; Oryza sativa (Efficacy in %) (Oryza sativa): 20%; Alopecurus myosuroides (Efficacy in %) (Alopecurus myosuroides [14]): 90%; Amaranthus retroflexus (Efficacy in %) (Amaranthus retroflexus [15]; application rate 80 g/ha): 100%; Avena fatua (Efficacy in %) (Avena fatua [16]): 90%; Lolium rigidum (Efficacy in %) (Lolium rigidum [19]): 90%; Viola tricolor (Efficacy in %) (Viola tricolor [21]): 100%; Stellaria media (Efficacy in %) (Stellaria media [24]): 100%
CC(Sc1cc(-n2c(=O)cc(C(F)(F)F)n(C)c2=O)c(F)cc1Cl)C(=O)OC1CCNC1=O (centres unmarked) [I.1-251],100,100,100,100,100,,100,100,,100,10,100,90,100,100,100,80,100,100,100,Avena fatua (Efficacy in %) (Avena fatua [26]): 80%; Setaria viridis (Efficacy in %) (Setaria viridis [3]; application rate 20 g/ha): 100%; Veronica persica (Efficacy in %) (Veronica persica [7]; application rate 80 g/ha): 100%; Viola tricolor (Efficacy in %) (Viola tricolor [8]; application rate 80 g/ha): 100%; Stellaria media (Efficacy in %) (Stellaria media [11]; application rate 80 g/ha): 100%; Triticum aestivum (Efficacy in %) (Triticum aestivum): 10%; Oryza sativa (Efficacy in %) (Oryza sativa): 20%; Alopecurus myosuroides (Efficacy in %) (Alopecurus myosuroides [14]): 100%; Amaranthus retroflexus (Efficacy in %) (Amaranthus retroflexus [15]; application rate 80 g/ha): 100%; Avena fatua (Efficacy in %) (Avena fatua [16]): 90%; Viola tricolor (Efficacy in %) (Viola tricolor [21]): 100%
COC(=O)CC(CC(=O)OC)OC(=O)CSc1cc(-n2c(=O)cc(C(F)(F)F)n(C)c2=O)c(F)cc1Cl [I.8-127],80,,,90,,100,,100,100,,,100,90,100,100,100,90,100,100,100,Amaranthus retroflexus (Efficacy in %) (Amaranthus retroflexus [2]; application rate 20 g/ha): 100%; Avena fatua (Efficacy in %) (Avena fatua [26]): 80%; Setaria viridis (Efficacy in %) (Setaria viridis [3]; application rate 20 g/ha): 100%; Abutilon theophrasti (Efficacy in %) (Abutilon theophrasti [4]; application rate 20 g/ha): 100%; Matricaria inodora (Efficacy in %) (Matricaria inodora [6]; application rate 20 g/ha): 100%; Viola tricolor (Efficacy in %) (Viola tricolor [8]; application rate 80 g/ha): 100%; Pharbitis purpurea (Efficacy in %) (Pharbitis purpurea [9]; application rate 20 g/ha): 100%; Echinochloa crus-galli (Efficacy in %) (Echinochloa crus-galli [12]; application rate 20 g/ha): 100%; Amaranthus retroflexus (Efficacy in %) (Amaranthus retroflexus [15]; application rate 20 g/ha): 100%; Lolium rigidum (Efficacy in %) (Lolium rigidum [19]): 90%; Stellaria media (Efficacy in %) (Stellaria media [24]): 100%
